# Key:
# Assay in all cases: MIC, broth microdilution (CLSI), substance alone or ATB combined with compound at 4 or 8 μg/mL
# SPN 49619 = type: cell-based, S. pneumoniae; conditions: SPN 49619; for MIC ATB combined with compound: compound @8 μg/ml
# Outline: (§1)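 CLSI broth microdilution in cation-adjusted Mueller-Hinton broth, 5·10^5 CFU/mL log-phase inoculum, 16-20 h at 35 °C in ambient air. Fosfomycin assays supplemented with 25 μg/ml glucose-6-phosphate.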
# PAE UFR48 = type: cell-based, P. aeruginosa; conditions: PAE UFR48; for MIC ATB combined with compound: compound @8 μg/ml
# Outline: as §1
# PAE UFR90 = type: cell-based, P. aeruginosa; conditions: PAE UFR90; for MIC ATB combined with compound: compound @8 μg/ml
# Outline: as §1
# PAE 105250 = type: cell-based, P. aeruginosa; conditions: PAE 105250; for MIC ATB combined with compound: compound @8 μg/ml
# Outline: as §1
# KPN 6299 = type: cell-based, K. pneumoniae; conditions: compound @8 μg/ml
# Outline: as §1
# KPN UFR42 = type: cell-based, K. pneumoniae; conditions: KPN UFR42; for MIC ATB combined with compound: compound @8 μg/ml
# Outline: as §1
# KPN BAA-1898 = type: cell-based, K. pneumoniae; conditions: KPN BAA-1898; for MIC ATB combined with compound: compound @8 μg/ml
# Outline: as §1
# ECO 190317 = type: cell-based, E. coli; conditions: ECO 190317; for MIC ATB combined with compound: compound @8 μg/ml
# Outline: as §1
# ECO UFR39 = type: cell-based, E. coli; conditions: ECO UFR39; for MIC ATB combined with compound: compound @8 μg/ml
# Outline: as §1
# ABA UFR156 = type: cell-based, A. baumannii; conditions: substance alone
# Outline: as §1
# ABA UFR152 = type: cell-based, A. baumannii; conditions: substance alone
# Outline: as §1
# SAU 29213 = type: cell-based, S. aureus; conditions: for MIC ATB combined with compound: compound @8 μg/ml, SAU 29213
# Outline: as §1
# ECL P99 = type: cell-based, E. cloacae; conditions: ECL P99; for MIC ATB combined with compound: compound @8 μg/ml
# Outline: as §1
smiles,measurement,setting,value
"O=C(O)C(F)(F)F.O=C1N2C[C@H](c3scnc3[C@H]2c2ncc[nH]2)N1OS(=O)(=O)[O-].[Na+] (relative stereo) [Example 6, sodium and 2,2,2-trifluoroacetate [trans-7-(1H-imidazol-3-ium--2-yl)-9-oxo-3-thia-5,8,10-triaza-tricyclo[6.2.1.0^2,6]undeca-2(6),4-dien-10-yl]sulfate]",MIC ATB combined with compound,SPN 49619; ATB ATM,<0.031 µg/mL
same,MIC ATB combined with compound,SPN 49619; ATB FEP,<0.031 µg/mL
same,MIC ATB combined with compound,SPN 49619; ATB FOS,<0.125 µg/mL
same,MIC ATB combined with compound,SPN 49619; ATB MEM,<0.031 µg/mL
same,MIC ATB combined with compound,SPN 49619; ATB PIP,<0.031 µg/mL
same,MIC,SPN 49619; substance alone,16 µg/mL
same,MIC ATB combined with compound,PAE UFR48; ATB ATM,8 µg/mL
same,MIC ATB combined with compound,PAE UFR48; ATB FEP,32 µg/mL
same,MIC ATB combined with compound,PAE UFR48; ATB FOS,32 µg/mL
same,MIC ATB combined with compound,PAE UFR48; ATB MEM,4 µg/mL
same,MIC ATB combined with compound,PAE UFR48; ATB PIP,>32 µg/mL
same,MIC,PAE UFR48; substance alone,>32 µg/mL
same,MIC ATB combined with compound,PAE UFR90; ATB ATM,8 µg/mL
same,MIC ATB combined with compound,PAE UFR90; ATB FEP,4 µg/mL
same,MIC ATB combined with compound,PAE UFR90; ATB FOS,8 µg/mL
same,MIC ATB combined with compound,PAE UFR90; ATB MEM,1 µg/mL
same,MIC ATB combined with compound,PAE UFR90; ATB PIP,>32 µg/mL
same,MIC,PAE UFR90; substance alone,>32 µg/mL
same,MIC ATB combined with compound,PAE 105250; ATB ATM,4 µg/mL
same,MIC ATB combined with compound,PAE 105250; ATB FEP,8 µg/mL
same,MIC ATB combined with compound,PAE 105250; ATB FOS,128 µg/mL
same,MIC ATB combined with compound,PAE 105250; ATB MEM,2 µg/mL
same,MIC ATB combined with compound,PAE 105250; ATB PIP,>32 µg/mL
same,MIC,PAE 105250; substance alone,>32 µg/mL
same,MIC ATB combined with compound,KPN 6299; ATB ATM,<0.031 µg/mL
same,MIC ATB combined with compound,KPN 6299; ATB FEP,<0.031 µg/mL
same,MIC ATB combined with compound,KPN 6299; ATB FOS,0.25 µg/mL
same,MIC ATB combined with compound,KPN 6299; ATB MEM,<0.031 µg/mL
same,MIC ATB combined with compound,KPN 6299; ATB PIP,<0.031 µg/mL
same,MIC ATB combined with compound,KPN UFR42; ATB ATM,<0.031 µg/mL
same,MIC ATB combined with compound,KPN UFR42; ATB FEP,<0.031 µg/mL
same,MIC ATB combined with compound,KPN UFR42; ATB FOS,<0.125 µg/mL
same,MIC ATB combined with compound,KPN UFR42; ATB MEM,<0.031 µg/mL
same,MIC ATB combined with compound,KPN UFR42; ATB PIP,<=0.031 μg/mL
same,MIC,KPN UFR42; substance alone,4 µg/mL
same,MIC ATB combined with compound,KPN BAA-1898; ATB ATM,<0.031 µg/mL
same,MIC ATB combined with compound,KPN BAA-1898; ATB FEP,<0.031 µg/mL
same,MIC ATB combined with compound,KPN BAA-1898; ATB FOS,<=0.125 μg/mL
same,MIC ATB combined with compound,KPN BAA-1898; ATB MEM,<0.031 µg/mL
same,MIC ATB combined with compound,KPN BAA-1898; ATB PIP,<0.031 µg/mL
same,MIC,KPN BAA-1898; substance alone,4 µg/mL
same,MIC ATB combined with compound,ECO 190317; ATB ATM,<0.031 µg/mL
same,MIC ATB combined with compound,ECO 190317; ATB FEP,<0.031 µg/mL
same,MIC ATB combined with compound,ECO 190317; ATB FOS,<0.125 µg/mL
same,MIC ATB combined with compound,ECO 190317; ATB MEM,<0.031 µg/mL
same,MIC ATB combined with compound,ECO 190317; ATB PIP,<0.031 µg/mL
same,MIC,ECO 190317; substance alone,1 µg/mL
same,MIC ATB combined with compound,ECO UFR39; ATB ATM,<0.031 µg/mL
same,MIC ATB combined with compound,ECO UFR39; ATB FEP,<0.031 µg/mL
same,MIC ATB combined with compound,ECO UFR39; ATB FOS,<0.125 µg/mL
same,MIC ATB combined with compound,ECO UFR39; ATB MEM,<0.031 µg/mL
same,MIC ATB combined with compound,ECO UFR39; ATB PIP,<0.031 µg/mL
same,MIC,ECO UFR39; substance alone,2 µg/mL
same,MIC,ABA UFR156,16 µg/mL
same,MIC,ABA UFR152,32 µg/mL
same,MIC ATB combined with compound,SAU 29213; ATB ATM,>32 µg/mL
same,MIC ATB combined with compound,SAU 29213; ATB FEP,<=0.031 μg/mL
same,MIC ATB combined with compound,SAU 29213; ATB FOS,<=0.125 μg/mL
same,MIC ATB combined with compound,SAU 29213; ATB MEM,<=0.031 μg/mL
same,MIC ATB combined with compound,SAU 29213; ATB PIP,0.063 µg/mL
same,MIC,"SAU 29213; substance alone, SAU 29213 (MSSA 29213)",>32 µg/mL
same,MIC ATB combined with compound,ECL P99; ATB ATM,<0.031 µg/mL
same,MIC ATB combined with compound,ECL P99; ATB FEP,<0.031 µg/mL
same,MIC ATB combined with compound,ECL P99; ATB FOS,<0.125 µg/mL
same,MIC ATB combined with compound,ECL P99; ATB MEM,<0.031 µg/mL
same,MIC ATB combined with compound,ECL P99; ATB PIP,<0.031 µg/mL
same,MIC,ECL P99; substance alone,4 µg/mL
